Source: patent publication US20190062340A1, “CORTISTATIN ANALOGS” (PRESIDENT AND FELLOWS OF HARVARD COLLEGE, priority 2016, published 2019)
pIC50: −log10 of the molar value.

What was measured:
[1] = system: off-target enzymes and receptors; experiment: Selectivity against off-target enzymes and receptors
[2] = Toxicity (weight loss) over 7 day dosing; format: in vivo; settings: low toxicity, no significant weight loss
hERG = hERG (Homo sapiens, UniProt Q12809); experiment: hERG activity; settings: low hERG activity is defined as IC50>1 μM
Sequence of hERG (Q12809 whole entry): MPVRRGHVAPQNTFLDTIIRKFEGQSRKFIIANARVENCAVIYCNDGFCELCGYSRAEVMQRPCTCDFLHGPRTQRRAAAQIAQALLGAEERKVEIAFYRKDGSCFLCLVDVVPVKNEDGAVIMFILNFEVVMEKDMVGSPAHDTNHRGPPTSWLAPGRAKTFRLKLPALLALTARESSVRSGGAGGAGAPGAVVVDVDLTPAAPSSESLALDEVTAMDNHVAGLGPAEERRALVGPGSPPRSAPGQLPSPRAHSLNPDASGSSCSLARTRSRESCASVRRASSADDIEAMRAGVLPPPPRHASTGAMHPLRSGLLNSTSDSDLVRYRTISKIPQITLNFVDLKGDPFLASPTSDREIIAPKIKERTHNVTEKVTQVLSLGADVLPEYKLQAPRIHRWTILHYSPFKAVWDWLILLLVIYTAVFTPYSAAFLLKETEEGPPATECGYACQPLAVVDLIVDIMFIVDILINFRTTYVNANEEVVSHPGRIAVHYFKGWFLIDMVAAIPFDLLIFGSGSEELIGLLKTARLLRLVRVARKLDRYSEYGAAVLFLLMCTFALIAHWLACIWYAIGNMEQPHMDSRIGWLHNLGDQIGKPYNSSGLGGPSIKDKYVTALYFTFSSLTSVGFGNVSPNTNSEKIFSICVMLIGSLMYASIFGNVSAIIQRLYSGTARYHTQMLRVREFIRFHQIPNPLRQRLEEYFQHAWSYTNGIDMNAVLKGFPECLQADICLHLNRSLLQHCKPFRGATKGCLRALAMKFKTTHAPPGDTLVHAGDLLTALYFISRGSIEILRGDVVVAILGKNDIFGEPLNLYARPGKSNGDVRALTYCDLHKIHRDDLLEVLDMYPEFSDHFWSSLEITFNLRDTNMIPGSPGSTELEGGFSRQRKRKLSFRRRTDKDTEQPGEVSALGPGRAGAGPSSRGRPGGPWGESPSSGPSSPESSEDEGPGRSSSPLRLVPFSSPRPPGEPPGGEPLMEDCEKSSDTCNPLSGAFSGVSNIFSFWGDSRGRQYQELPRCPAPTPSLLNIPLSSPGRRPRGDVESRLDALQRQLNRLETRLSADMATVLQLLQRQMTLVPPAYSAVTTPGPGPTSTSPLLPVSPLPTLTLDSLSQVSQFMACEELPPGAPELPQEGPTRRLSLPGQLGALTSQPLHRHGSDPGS

[3] = Tolerability of once-daily dosing in mice (weight loss); settings: once-daily at a dose that fully inhibits CDK8 kinase activity in vivo, experiment terminated
[4] = system: human umbilical vein endothelial cells (HUVECs); settings: HUVEC proliferation; initial study of Aoki et al.; read-out: IC50, anti-proliferative activity against HUVECs; cited from earlier work

Compound	selectivity against off-target enzymes and receptors [1]	weight loss [2] [%]	pIC50 (hERG)	weight loss in the animal [3]	pIC50 [4]
C[C@]12CC=C3C=C4CC[C@@H](O)C[C@]45CC[C@]3(O5)[C@@H]1CC[C@@H]2c1ccc2ccncc2c1 [Compound A, (3S,3 aR,9R,10aR,12aS,12bR)-3-(isoquinolin-7-yl)-3a-methyl-1,2,3,3 a,4,7,8,9,10,11,12,12b-dodecahydro-10a,12a-epoxybenzo[4,5]cyclohepta[1,2-e]inden-9-ol]	high selectivity	< 15	< 6.00	–	–
Cortistatin A	–	–	–	unacceptable weight loss	8.74
